In patent US8754115B2, “Fungicidal pyrazoles” (E I du Pont de Nemours and Company, priority 2010, dated 2014):
Marks after values point to notes of the source that are not given here.

Tests used:
Assay type in all cases: in vivo
Botrytis cinerea = experiment: Test A: preventive spray on tomato seedlings, visual disease rating (tomato Botrytis)
Summary of the method: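 Tomato seedlings sprayed to run-off with 200 ppm suspension (800 g/ha; asterisk marks 40 ppm), inoculated next day with Botrytis cinerea spores, held 48 h saturated at 20 °C then 3 days at 24 °C. Visual rating: 100 = full disease control, 0 = none, relative to controls.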

Alternaria solani = experiment: Test B: preventive spray on tomato seedlings, visual disease rating (tomato early blight)
Summary of the method: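 Compounds were suspended at 200 ppm (asterisked values at 40 ppm) in acetone/water with surfactant and sprayed to run-off on tomato seedlings, 200 ppm being equivalent to 800 g/ha. A. solani spores were inoculated the next day, with 48 h at 27 °C in saturated air, then 5 days at 20 °C. Disease control was rated visually, 0–100% relative to controls.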

Septoria nodorum = experiment: Test C: preventive spray on wheat seedlings, visual disease rating (Septoria glume blotch)
Summary of the method: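 Wheat seedlings were sprayed to run-off with 200 ppm suspension (40 ppm where marked; 200 ppm ≈ 800 g/ha) in acetone/water with 250 ppm Trem 014, then inoculated next day with Septoria nodorum spores. Incubation was 48 h saturated at 24 °C, then 6 days at 20 °C; visual rating 0–100% disease control versus controls.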

Septoria tritici = experiment: Test D: preventive spray on wheat seedlings, visual disease rating (wheat leaf blotch)
Summary of the method: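 Wheat seedlings were sprayed to run-off with a 200 ppm suspension (equal to 800 g/ha), or 40 ppm where marked with an asterisk, and inoculated with Septoria tritici spores the next day. Plants were kept at 24 °C in saturated air for 48 h, then at 20 °C for 19 days. Disease control was rated visually from 0 to 100 relative to controls.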

[1] = test system: Puccinia recondite f. sp. tritici; experiment: Test E1: curative spray on wheat seedlings after inoculation, visual disease rating (wheat leaf rust)
Summary of the method: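 Seedlings inoculated with rust spores, held 24 h in saturated atmosphere at 20 °C, then 2 days at 20 °C before curative spray to run-off with test suspension (200 ppm ≈ 800 g/ha, or 40 ppm where marked) in acetone/water with surfactant. Visual disease control rating (0–100) after 6 further days at 20 °C.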

[2] = test system: Puccinia recondite f. sp. tritici; experiment: Test E2: preventive spray on wheat seedlings, visual disease rating (wheat leaf rust)
Summary of the method: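 Test suspension (acetone 3% of volume, acetone/water 50/50, 250 ppm Trem 014), 200 ppm unless starred (40 ppm), sprayed to run-off on wheat seedlings; inoculated next day with P. recondita spores. 24 h saturated atmosphere at 20 °C, then 7 days at 20 °C; visual rating, 100 = full control vs untreated.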

[3] = test system: Blumeria graminis f. sp. tritici; experiment: Test F: preventive spray on wheat seedlings, visual disease rating (wheat powdery mildew)
Summary of the method: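 Compound in acetone/water (50/50) with 250 ppm surfactant, sprayed to run-off on wheat seedlings at 200 ppm (≈800 g/ha) or, where marked, 40 ppm. Seedlings dusted with spores the next day, kept 8 days at 20° C., then rated visually as % disease control versus untreated plants.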

[4] = no asterisk: standard test suspension, not 40 ppm, 100 = 100% disease control, 0 = none
[5] = no asterisk: standard test suspension, not 40 ppm
[6] = asterisk: 40 ppm test suspension

Compound	Test A rating (% disease control) (Botrytis cinerea; [4]) [%]	Test B rating (% disease control) (Alternaria solani; [5]) [%]	Test C rating (% disease control) (Septoria nodorum; [5]) [%]	Test D rating (% disease control) (Septoria tritici; [5]) [%]	Test E1 rating (% disease control) [1, 5] [%]	Test E2 rating (% disease control) [2, 5] [%]	Test F rating (% disease control) [3, 5] [%]	Test A rating (% disease control) (Botrytis cinerea; [6])	Test B rating (% disease control) (Alternaria solani; [6])	Test C rating (% disease control) (Septoria nodorum; [6])	Test D rating (% disease control) (Septoria tritici; [6])	Test E1 rating (% disease control) [1, 6]	Test E2 rating (% disease control) [2, 6]	Test F rating (% disease control) [3, 6]
Cc1nn(C)c(-c2ccc(C#N)cc2Cl)c1Oc1ccc(F)cc1Cl [compound 36]	96	0	0	100	18	100	100							
Cc1nn(C)c(-c2c(F)cccc2Cl)c1C(O)c1ccc(C#N)cc1F (centres unmarked) [compound 38]	85	99	100	100	0	100	98							
COc1cc(F)c(C(O)c2c(C)nn(C)c2-c2c(F)cccc2Cl)c(F)c1 (centres unmarked) [compound 39]	95	58	60	100	97	100	99							
Cc1nn(C)c(-c2ccc(F)cc2Cl)c1Nc1ccc(F)cc1 [compound 41]	100	64	0	98	0	41	0							
Cc1nn(C)c(-c2ccc(F)cc2Cl)c1Nc1ccc(F)cc1Cl [compound 42]	99	99	0	100	32	99	100							
Cc1nn(C)c(-c2ccc(F)cc2Cl)c1Oc1ccc(C#N)cc1Cl [compound 43]	98	0	0	100	0	98	97							
Cc1nn(C)c(-c2ccc(F)cc2Cl)c1Nc1ccc(Cl)cc1Cl [compound 44]								99* %	0* %	0* %	99* %	0* %	99* %	100* %
Cc1nn(C)c(-c2c(F)cccc2F)c1Nc1ccc(F)cc1Cl [compound 50]	99	93	0	100	0	79	98							
Cc1nn(C)c(-c2c(F)cccc2Cl)c1C(O)c1c(Cl)cc(Cl)cc1Cl (centres unmarked) [compound 55]	99	97	78	100	99	100	95							
Cc1nn(C)c(-c2ccc(F)cc2F)c1Nc1ccc(F)cc1Cl [compound 57]								99* %	0* %	0* %	81* %	0* %	18* %	97* %
Cc1nn(C)c(-c2ccc(F)cc2Cl)c1Nc1ccc(F)cc1Br [compound 58]								100* %	8* %	0* %	100* %	0* %	98* %	97* %
